This note sets out measurements from patent US11504382B2, “Tricyclic inhibitors of Hepatitis B virus” (Antios Therapeutics, Inc., priority 2018, dated 2022).

The test system of the experiment is HBV. The experiment in a line: HBV inhibition assay in HepAD38 cells (extracellular HBV DNA by direct qPCR). The experiment is classed as cell-based, Hepatitis B virus. The following applies: 96 hours; for EC50: 8-point dose-response curve, read-out: HBV inh EC50; for Anti HBV Activity (conc μM) / inhibition at 0.1 µM: 0.1 μM. Background: Real-time PCR tracks product formation cycle by cycle.

Setting [1] is: relative to non-treated reference.
Setting [2] is: Hepatitis B virus, relative to non-treated reference, read-out: Anti HBV Activity (conc μM).

Read-outs that look alike come from different tables or passages of the source. Some results are limits rather than exact numbers.

As a reminder, the EC50 is the concentration needed to bring the measured effect to its halfway point. For `Cc1cc(NC(=O)c2c3c(cn2C)S(=O)(=O)NC2CN(C(=O)C4(C)COC4)CC2CO3)ccc1F` (stereo not drawn) [Example E149, Trans-N-(4-fluoro-3-methylphenyl)-7-methyl-2-(3-methyloxetane-3-carbonyl)-2,3,3a,4,10,10a-hexahydro-1H,7H-dipyrrolo[3,4-b:3′,4′-f][1,4,5]oxathiazocine-8-carboxamide 5,5-dioxide], the EC50 was less than 1000 nM.
Turning to “Ethyl 8-((4-fluoro-3-methylphenyl)carbamoyl)-7-methyl-3a,4,10,10a-tetrahydro-1H,7H-dipyrrolo[3,4-b:3′,4′-f][1,4,5]oxathiazocine-2(3H)-carboxylate 5,5-dioxide (3aS,10aS) [Example E40]”, the “Anti HBV Activity (conc μM)” value under setting [1] is recorded as “B (0.1) (HBV inhibition less than 50% at the concentration indicated in the table)”.
In the case of `CCOC(=O)N1CC2COc3c(cn(C)c3C(=O)Nc3ccc(F)c(C#N)c3)S(=O)(=O)NC2C1` (racemic) [Example E17, Cis-Ethyl 8-((3-cyano-4-fluorophenyl)carbamoyl)-7-methyl-3a,4,10,10a-tetrahydro-1H,7H-dipyrrolo[3,4-b:3′,4′-f][1,4,5]oxathiazocine-2(3H)-carboxylate 5,5-dioxide], the inhibition at 0.1 µM under setting [2] was greater than 50%. Further, under “Hepatitis B virus”, the concentration for a half-maximal effect (EC50) was less than 1000 nM.
With `CCOC(=O)N1CC2COc3c(cn(C)c3C(=O)Nc3ccc(F)c(F)c3)S(=O)(=O)NC2C1` (single isomer, unassigned) [Example E38, Ethyl 8-((3,4-difluorophenyl)carbamoyl)-7-methyl-3a,4,10,10a-tetrahydro-1H,7H-dipyrrolo[3,4-b:3′,4′-f][1,4,5]oxathiazocine-2(3H)-carboxylate 5,5-dioxide (Chiral 3aS,10aS or 3aR,10aR - Stereochemistry unknown)], the “Anti HBV Activity (conc μM)” value under setting [1] was “B (0.1) (HBV inhibition less than 50% at the concentration indicated in the table)”.
Consider `Cc1cc(NC(=O)c2c3c(cn2C)S(=O)(=O)NC2CNCC2CO3)ccc1F` (stereo not drawn) [Example E47, cis-N-(4-fluoro-3-methylphenyl)-7-methyl-2,3,3a,4,10,10a-hexahydro-1H,7H-dipyrrolo[3,4-b:3′,4′-f][1,4,5]oxathiazocine-8-carboxamide 5,5-dioxide hydroiodide], for which, under setting [2], the inhibition at 0.05 µM was greater than 50%. For the same molecule, under “Hepatitis B virus”, the EC50 is less than 1000 nM.
Turning to `Cn1cc2c(c1C(=O)Nc1ccc(F)c(F)c1)OC1COCC1NS2(=O)=O` (racemic) [Example E4, trans-N-(3,4-difluorophenyl)-7-methyl-1,3a,4,9a-tetrahydro-3H,7H-furo[3,4-f]pyrrolo[3,4-b][1,4,5]oxathiazepine-8-carboxamide 5,5-dioxide], the inhibition at 1 µM (Hepatitis B virus, 1 μM, relative to non-treated reference, read-out: Anti HBV Activity (conc μM)) is greater than 50%. Moreover, the EC50 (Hepatitis B virus) was less than 1000 nM.
As for `CCOC(=O)N1CC2CCOc3c(cn(C)c3C(=O)Nc3cc(F)c(F)c(F)c3)S(=O)(=O)NC2C1` (mixture of isomers) [Example E156, Cis/Trans Ethyl 7-methyl-8-((3,4,5-trifluorophenyl)carbamoyl)-1,3a,4,10,11,11a-hexahydro-7H-dipyrrolo[3,4-b:3′,4′-f][1,4,5]oxathiazocine-2(3H)-carboxylate 5,5-dioxide], for the setting “Hepatitis B virus”, the concentration for a half-maximal effect (EC50) is less than 1000 nM.
The same measure, in the same setting: as for `Cc1cc(NC(=O)c2c3c(cn2C)S(=O)(=O)N[C@H]2CN(C(=O)C4(C)CCCO4)C[C@H]2CO3)ccc1F` (stereo partly drawn) [Example E111, (3aR,10aR)—N-(4-fluoro-3-methylphenyl)-7-methyl-2-(2-methyltetrahydrofuran-2-carbonyl)-2,3,3a,4,10,10a-hexahydro-1H,7H-dipyrrolo[3,4-b:3′,4′-f][1,4,5]oxathiazocine-8-carboxamide 5,5-dioxide], the figure is less than 1000 nM; as for `Cc1nnc(C(=O)N2C[C@@H]3COc4c(cn(C)c4C(=O)Nc4ccc(F)c(C)c4)S(=O)(=O)N[C@@H]3C2)s1` (relative stereo) [Example E62, cis-N-(4-fluoro-3-methylphenyl)-7-methyl-2-(5-methyl-1,3,4-thiadiazole-2-carbonyl)-2,3,3a,4,10,10a-hexahydro-1H,7H-dipyrrolo[3,4-b:3′,4′-f][1,4,5]oxathiazocine-8-carboxamide 5,5-dioxide], less than 1000 nM.
As to `Cc1cc(NC(=O)c2c3c(cn2C)S(=O)(=O)NC2CN(C(=O)C4(C)COC4)CCC2CO3)ccc1F` (racemic) [Example E136, Cis-N-(4-fluoro-3-methylphenyl)-2-methyl-7-(3-methyloxetane-3-carbonyl)-5,5a,6,7,8,9,9a,10-octahydro-2H-pyrido[3,4-f]pyrrolo[3,4-b][1,4,5]oxathiazocine-1-carboxamide 4,4-dioxide], under “Hepatitis B virus”, the EC50 was less than 1000 nM.
Consider `Cn1cc2c(c1C(=O)Nc1cc(F)c(F)c(F)c1)OCC1CN(C(=O)OC(C)(C)C)CC1NS2(=O)=O` (racemic) [Example E24, Tert-Butyl (3aS,10aS and 3aR,10aR) 7-methyl-8-((3,4,5-trifluorophenyl)carbamoyl)-3a,4,10,10a-tetrahydro-1H,7H-dipyrrolo[3,4-b:3′,4′-f][1,4,5]oxathiazocine-2(3H)-carboxylate 5,5-dioxide], for which the inhibition at 0.1 µM under setting [2] is greater than 50%.
Turning to `Cn1cc2c(c1C(=O)Nc1cc(F)c(F)c(F)c1)OC[C@H]1CN(C(=O)[C@@H](N)CO)C[C@H]1NS2(=O)=O` (mixture of isomers) [Example E68, cis-2-(L-seryl)-7-methyl-N-(3,4,5-trifluorophenyl)-2,3,3a,4,10,10a-hexahydro-1H,7H-dipyrrolo[3,4-b:3′,4′-f][1,4,5]oxathiazocine-8-carboxamide 5,5-dioxide], the inhibition at 0.1 µM under setting [2] is less than 50%.
As for `Cn1cc2c(c1C(=O)Nc1cc(F)c(F)c(F)c1)OC[C@H]1CN(C(=O)c3ncco3)C[C@H]1NS2(=O)=O` (relative stereo) [Example E50, cis-7-methyl-2-(oxazole-2-carbonyl)-N-(3,4,5-trifluorophenyl)-2,3,3a,4,10,10a-hexahydro-1H,7H-dipyrrolo[3,4-b:3′,4′-f][1,4,5]oxathiazocine-8-carboxamide 5,5-dioxide], the inhibition at 0.05 µM under setting [2] is greater than 50%. Also, the EC50 (Hepatitis B virus) is less than 1000 nM.
As for `Cc1nnc(N2C[C@H]3COc4c(cn(C)c4C(=O)Nc4ccc(F)c(C)c4)S(=O)(=O)N[C@H]3C2)o1` [Example E118, (3aR,10aR)—N-(4-fluoro-3-methylphenyl)-7-methyl-2-(5-methyl-1,3,4-oxadiazol-2-yl)-2,3,3a,4,10,10a-hexahydro-1H,7H-dipyrrolo[3,4-b:3′,4′-f][1,4,5]oxathiazocine-8-carboxamide 5,5-dioxide], the EC50 (Hepatitis B virus) was less than 1000 nM.
Turning to `Cc1cc(NC(=O)c2c3c(cn2C)S(=O)(=O)N[C@H]2CN(C(=O)c4ncoc4C)C[C@H]2CO3)ccc1F` [Example E113, (3aR,10aR)—N-(4-fluoro-3-methylphenyl)-7-methyl-2-(5-methyloxazole-4-carbonyl)-2,3,3a,4,10,10a-hexahydro-1H,7H-dipyrrolo[3,4-b:3′,4′-f][1,4,5]oxathiazocine-8-carboxamide 5,5-dioxide], the EC50 (Hepatitis B virus) was less than 1000 nM.
Turning to `Cc1cc(NC(=O)c2c3c(cn2C)S(=O)(=O)N[C@H]2CN(C(=O)C45CC(CO4)C5)C[C@H]2CO3)ccc1F` [Example E109, (3aR,10aR)-2-(2-oxabicyclo[2.1.1]hexane-1-carbonyl)-N-(4-fluoro-3-methylphenyl)-7-methyl-2,3,3a,4,10,10a-hexahydro-1H,7H-dipyrrolo[3,4-b:3′,4′-f][1,4,5]oxathiazocine-8-carboxamide 5,5-dioxide], the 50% effective concentration (EC50) (Hepatitis B virus) is less than 1000 nM.
Turning to `CCOC(=O)N1CC2NS(=O)(=O)c3cn(C)c(C(=O)Nc4ccc(F)c(C)c4)c3OCC2(C)C1` (single isomer, unassigned) [Example E94, Ethyl 8-((4-fluoro-3-methylphenyl)carbamoyl)-7,10a-dimethyl-3a,4,10,10a-tetrahydro-1H,7H-dipyrrolo[3,4-b:3′,4′-f][1,4,5]oxathiazocine-2(3H)-carboxylate 5,5-dioxide(Chiral 3aS,10aS or 3aR,10aR - Stereochemistryunknown)], the EC50 was less than 1000 nM.
`Cc1cc(NC(=O)c2c3c(cn2C)S(=O)(=O)N[C@H]2CN(C(=O)[C@H]4CCCO4)C[C@H]2CO3)ccc1F` [Example E100, (3aR,10aR)—N-(4-fluoro-3-methylphenyl)-7-methyl-2-((R)-tetrahydrofuran-2-carbonyl)-2,3,3a,4,10,10a-hexahydro-1H,7H-dipyrrolo[3,4-b:3′,4′-f][1,4,5]oxathiazocine-8-carboxamide 5,5-dioxide]: the EC50 (Hepatitis B virus) is less than 1000 nM.
With `Cc1nnc(C(=O)N2CC3COc4c(cn(C)c4C(=O)Nc4cc(F)c(F)c(F)c4)S(=O)(=O)NC3C2)o1` (stereo not drawn) [Example E51, cis-7-methyl-2-(5-methyl-1,3,4-oxadiazole-2-carbonyl)-N-(3,4,5-trifluorophenyl)-2,3,3a,4,10,10a-hexahydro-1H,7H-dipyrrolo[3,4-b:3′,4′-f][1,4,5]oxathiazocine-8-carboxamide 5,5-dioxide], the inhibition at 0.05 µM under setting [2] is greater than 50%. Where the note is “Hepatitis B virus”, the EC50 was less than 1000 nM.
`CCOC(=O)N1CC2NS(=O)(=O)c3cn(C)c(C(=O)Nc4cc(F)c(F)c(F)c4)c3OCC2(C)C1` (single isomer, unassigned) [Example E91, Ethyl 7,10a-dimethyl-8-((3,4,5-trifluorophenyl)carbamoyl)-3a,4,10,10a-tetrahydro-1H,7H-dipyrrolo[3,4-b:3′,4′-f][1,4,5]oxathiazocine-2(3H)-carboxylate 5,5-dioxide (Chiral 3aS,10aS or 3aR,10aR - Stereochemistry unknown)]: the EC50 is less than 1000 nM.
As to `Cn1cc2c(c1C(=O)Nc1cc(F)c(F)c(F)c1)OCC1CN(C(=O)c3cnco3)CC1NS2(=O)=O` (stereo not drawn) [Example E64, cis-7-methyl-2-(oxazole-5-carbonyl)-N-(3,4,5-trifluorophenyl)-2,3,3a,4,10,10a-hexahydro-1H,7H-dipyrrolo[3,4-b:3′,4′-f][1,4,5]oxathiazocine-8-carboxamide 5,5-dioxide], under “Hepatitis B virus”, the EC50 was less than 1000 nM.
